Here are results for 17 molecules from patent publication US20080280868A1, “Pyridine Derivatives and Their Use as Cb2 Receptor Modulators” (priority 2004, published 2008).

Counter-ions that a name gives are not always drawn. Like-named read-outs stand apart in the source and are kept apart here.

This assay concerns the target T1, human cannabinoid CB2 receptor (Homo sapiens, UniProt P34972).
T1 construct: expressed in transfected cells; host or cells: Saccharomyces cerevisiae strain MMY23 (cassette integrated at the ura3 locus, GPD promoter)
In words: Cannabinoid CB2 receptor agonist activity in yeast cells (FDGlu fluorescence). The settings on record: for Emax: read-out: efficacy value (Emax) at the cloned human cannabinoid CB2 receptor. The format is cell-based. How it is done: The cannabinoid CB2 receptor agonist activity of the compounds of formula (I) was determined in accordance with the following experimental method.
Yeast (Saccharomyces cerevisiae) cells expressing the human cannabinoid CB2 receptor were generated by integration of an expression cassette into the ura3 chromosomal locus of yeast strain MMY23. This cassette consisted of DNA sequence encoding the human CB2 receptor flanked by the yeast GPD promoter to the 5′ end of CB2 and a yeast transcriptional terminator sequence to the 3′ end of CB2. MMY23 expresses a yeast/mammalian chimeric G-protein alpha subunit in which the C-terminal 5 amino acids of Gpal are replaced with the C-terminal 5 amino acids of human Gαi3 (as described in Brown et al. (2000), Yeast 16:11-22).
Agonists were prepared as 10 mM stocks in DMSO. […] Agonist solutions in DMSO (1% final assay volume) were transferred into black, clear bottom, microtitre plates from NUNC (96- or 384-well). Cells were suspended at a density of 0.2 OD600/ml in SC media lacking histidine, uracil, tryptophan, adenine and leucine and supplemented with 10 mM 3-aminotriazole, 0.1M sodium phosphate pH 7.0, and […] fluorescein di-β-D-glucopyranoside (FDGlu). […] After incubation at 30° C. for 24 hours, fluorescence resulting from degradation of FDGlu to fluorescein due to exoglucanase, an endogenous yeast enzyme produced during agonist-stimulated cell growth, was determined using a Spectrofluor microtitre plate reader (Tecan; excitation wavelength: 485 nm; emission wavelength: 535 nm). Fluorescence was plotted against compound concentration and iteratively curve fitted using a four parameter fit to generate a concentration effect value. Efficacy (Emax) was calculated from the equation
Equieffective molar ratio (EMR) values were calculated from the equation

Where [1] appears, read: Emax relative to HU210, yeast expressing human CB2.
The mark [2] stands for this setting: yeast (Saccharomyces cerevisiae) expressing human CB2, agonist, 30° C. for 24 hours, read-out: EC50 at the cloned human cannabinoid CB2 receptor.

T1 sequence (P34972 whole entry): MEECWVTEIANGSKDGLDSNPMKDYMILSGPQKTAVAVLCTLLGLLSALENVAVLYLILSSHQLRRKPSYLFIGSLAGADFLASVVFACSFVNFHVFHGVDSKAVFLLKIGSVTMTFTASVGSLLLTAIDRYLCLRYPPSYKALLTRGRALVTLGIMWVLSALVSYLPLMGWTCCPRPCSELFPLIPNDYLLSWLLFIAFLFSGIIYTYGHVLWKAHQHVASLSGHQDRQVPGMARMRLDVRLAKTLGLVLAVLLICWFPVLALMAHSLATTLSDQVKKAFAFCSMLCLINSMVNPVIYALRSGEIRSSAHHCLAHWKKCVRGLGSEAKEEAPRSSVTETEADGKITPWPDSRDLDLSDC

Usually EC50 stands for the concentration giving half of the maximal effect. By Emax is commonly meant the size of the effect at its maximum, as opposed to the concentration needed. Regarding `CC(C)CNCc1cnc(Nc2ccc(Cl)c(Cl)c2)cc1C(C)C` [Example 47, (3,4-Dichloro-phenyl)-[5-(isobutylamino-methyl)-4-isopropyl-pyridin-2-yl]-amine, compound withformic acid (1:1)], the EC50 was under 0.3 µM and the maximal effect (Emax) is over 50%. Consider `CC(C)CNCc1cnc(Nc2cccc(Br)c2)cc1C(C)C` [Example 48, (3-Bromo-phenyl)-[5-(isobutylamino-methyl)-4-isopropyl-pyridin-2-yl]-amine, compound withformic acid (1:33)], for which the Emax under setting [1] was over 50%. Besides, under setting [2], the half-maximal effective concentration (EC50) is under 0.3 µM.

As to `CC(C)c1cc(N(C)c2cccc(Br)c2)ncc1CNCC1CCOCC1` [Example 49, (3-Bromo-phenyl)-(4-isopropyl-5-{[(tetrahydro-pyran-4-ylmethyl)-amino]-methyl}-pyridin-2-yl)-methyl-amine, compound withformic acid (1:1)], the Emax under setting [1] is over 50%. In addition, the EC50 under setting [2] was under 0.3 µM. In the case of `CC(C)c1cc(Nc2cccc(Cl)c2)ncc1CNCC1CCCC1` [Example 50, (3-Chloro-phenyl)-{5-[(cyclopentylmethyl-amino)-methyl]-4-isopropyl-pyridin-2-yl}-amine, compound with formic acid(1:1)], the EC50 was under 0.3 µM and the maximal effect (Emax) was over 50%.

As to `CC(C)CNCc1cnc(Nc2cccc(C(F)(F)F)c2)cc1C(C)C` [Example 51, [5-(Isobutylamino-methyl)-4-isopropyl-pyridin-2-yl]-(3-trifluoromethyl-phenyl)-amine,compound with formic acid (1:1,25)], the Emax under setting [1] was over 50%. Moreover, under setting [2], the 50% effective concentration (EC50) was under 0.3 µM.

Take `Fc1ccc(CNCc2cnc(Nc3cccc(Cl)c3)cc2C2CC2)cc1` [Example 52, (3-Chloro-phenyl)-{4-cyclopropyl-5-[(4-fluorobenzylamino)methyl]-pyridin-2-yl}-amine dihydrochloride]: the EC50 is under 0.3 µM and the Emax is over 50%. On to `Fc1ccc(CNCc2cnc(Nc3ccc(Cl)cc3Cl)cc2C(F)(F)F)cc1` [Example 54, (2,4-Dichlorophenyl)-{5-[(4-fluoro-benzylamino)-methyl]-4-trifluoromethyl-pyridin-2-yl}-amine], for which the 50% effective concentration (EC50) under setting [2] lay within 0.3 to 1 µM. Take `CCCNCc1cnc(Nc2cccc(Cl)c2)cc1C1CC1` [Example 55, (3-Chloro-phenyl)-(4-cyclopropyl-5-propylaminomethyl-pyridin-2-yl) amine dihydrochloride]: the EC50 is under 0.3 µM and the maximal effect (Emax) was over 50%. Taken in the same sequence, the figures for `CC(C)c1cc(Nc2cccc(C(F)(F)F)c2F)ncc1C(C)NCC1CCC1` (centres unmarked) [Example 56, {[1-Cyclobutylmethyl-amino)ethyl]-4-isopropyl-pyridin-2-yl}-(2-fluoro-3-trifluoromethyl-phenyl)-amine dihydrochloride] were under 0.3 µM and over 50%. `CC(C)c1cc(Nc2cccc(Cl)c2)ncc1CN1CCC(F)(F)CC1` [Example 57, (3-Chloro-phenyl)-[5-(4,4-difluoro-piperidin-1-ylmethyl)-4-isopropylpyridin-2-yl]-amine dihydrochloride]: the EC50 was under 0.3 µM and the Emax was over 50%. For `CC(C)c1cc(Nc2cccc(Cl)c2)ncc1CN1CCCC1` [Example 58, (3-Chloro-phenyl)-(4-isopropyl-5-pyrrolidin-1-ylmethyl-pyridin-2-yl)-amine. dihydrochloride], in that order: under 0.3 µM and over 50%.

For `CC(C)c1cc(Nc2cccc(Cl)c2)ncc1CN1CCC1` [Example 59, (5-Azetidin-1-ylmethyl-4-isopropyl-pyridin-2-yl)-(3-chloro-phenyl)-amine.dihydrochloride], under setting [2], the concentration for a half-maximal effect (EC50) is under 0.3 µM.

As to `CC(C)c1cc(Nc2cccc(Cl)c2)ncc1CN1CCSCC1` [Example 60, (3-Chloro-phenyl)-(4-isopropyl-5-thiomorpholin-4-ylmethyl-pyridin-2-yl)-amine. dihydrochloride], the EC50 is under 0.3 µM and the Emax was over 50%. Taken in the same sequence, the figures for `CC(C)c1cc(Nc2ccc(Cl)cc2Cl)ncc1CN1CCSCC1` [Example 61, (2,4-Dichloro-phenyl)-(4-isopropyl-5thiomorpholin-4-ylmethyl-pyridin-2-yl)-amine dihydrochloride] were under 0.3 µM and over 50%.

As to `Clc1cccc(Nc2cc(C3CC3)c(CNCC3CCCC3)cn2)c1` [Example 62, (3-Chloro-phenyl)-{5-[(cyclopentylmethyl-amino)-methyl]-4-cyclopropyl-pyridin-2-yl}-amine di-Hydrochloride], the EC50 is under 0.3 µM and the maximal response (Emax) is over 50%. For `O=S1(=O)CCC(NCc2cnc(Nc3cccc(Cl)c3)cc2C2CC2)CC1` [Example 63, (3-Chloro-phenyl)-{4-cyclopropyl-5-[(1,1-dioxo-hexahydro-1l^6-thiopyran-4-ylamino)-methyl]-pyridin-2-yl}-amine di-hydrochloride], in that order: under 0.3 µM and over 50%. For `CC(C)c1cc(Nc2cccc(Cl)c2)ncc1CNC(C)(C)C` [Example 65, [5-(tert-Butylamino-methyl)isopropyl-pyridin-2-yl]-(3-chloro-phenyl)amine dihydrochloride], in that order: 0.3 to 1 µM and over 50%.
